# Assays:
# Assay type in all cases: in vivo
# [1] = system: redroot pigweed (Amaranthus retroflexus, AMARE); assay: Pre-emerge test, greenhouse herbicide activity screening; details: pre-emerge, rated 14 days after application, 0 = no damage, 100 = complete death
# How it was run: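 Sandy loam pots; pre-emerge: sown 1 d pre-spray, surface-watered after, then bottom-watered. Post-emerge: sown 8–21 d before, 2–3 leaf stage, + 0.25% v/v NIS, bottom-watered. Acetone, 187 l/ha track spray, 15–1000 g ai/ha. 0–100 injury score, day 14.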
# [2] = system: barnyardgrass (Echinochloa crus-galli, ECHCG); assay: as above; details: pre-emerge, rated 14 days after application, 0 = no damage, 100 = complete death
# How it was run: (§1)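 Fourteen days after spraying, crop and weed injury was graded visually from 0, no effect, to 100, every plant dead. Test substances were dissolved in acetone and applied at 15–1000 g ai/ha with a flat-fan nozzle. Application was either pre-emergence, one day after sowing, or post-emergence at the 2–3 leaf stage.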
# [3] = system: green foxtail (Setaria viridis, SETVI); assay: as above; details: pre-emerge, rated 14 days after application, 0 = no damage, 100 = complete death
# How it was run: as §1
# [4] = system: ivyleaf morningglory (Ipomoea hederacea, IPOHE); assay: as above; details: pre-emerge, rated 14 days after application, 0 = no damage, 100 = complete death
# How it was run: as §1
# [5] = system: johnsongrass (Sorghum halepense, SORHA); assay: as above; details: pre-emerge, rated 14 days after application, 0 = no damage, 100 = complete death
# How it was run: as §1
# [6] = system: lambsquarters (Chenopodium album, CHEAL); assay: as above; details: pre-emerge, rated 14 days after application, 0 = no damage, 100 = complete death
# How it was run: as §1
# [7] = system: large crabgrass (Digitaria sanguinalis, DIGSA); assay: as above; details: pre-emerge, rated 14 days after application, 0 = no damage, 100 = complete death
# How it was run: as §1
# [8] = system: sicklepod (Cassia obtusifolia, CASOB); assay: as above; details: pre-emerge, rated 14 days after application, 0 = no damage, 100 = complete death
# How it was run: as §1
# [9] = system: velvetleaf (Abutilon theophrasti, ABUTH); assay: as above; details: pre-emerge, rated 14 days after application, 0 = no damage, 100 = complete death
# How it was run: as §1
# [10] = system: field corn (Zea mays L., var. Dekalb 535, CORN); assay: Pre-emerge test, crop safety; details: pre-emerge, rated 14 days after application, 0 = no damage, 100 = complete death
# How it was run: (§2)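 Rating: 0–100 visual injury, 14 DAA. Application: acetone, 187 l/ha, 15–1000 g ai/ha, flat-fan track sprayer with nozzle 40–45 cm above soil or canopy. Post-emerge runs used 0.25% v/v surfactant on 2–3 leaf plants.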
# [11] = system: upland rice (Oryza sp., var. Tebonnet, RICE); assay: Pre-emerge test, crop safety; details: pre-emerge, rated 14 days after application, 0 = no damage, 100 = complete death
# How it was run: as §2
# [12] = system: barnyardgrass (Echinochloa crus-galli, ECHCG); assay: Post-emerge test, greenhouse herbicide activity screening; details: phytotoxicity rating 0-100 (0 no damage, 100 complete death), 14 days after application
# How it was run: (§3)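 Compounds in acetone were track-sprayed at 15-1000 g ai/ha (187 l/ha) on sandy loam pots: pre-emerge one day after seeding, post-emerge at 2-3 leaf stage with 0.25% v/v non-ionic surfactant. Phytotoxicity was rated 14 days later on a 0 (no damage) to 100 (complete death) scale.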
# [13] = system: green foxtail (Setaria viridis, SETVI); assay: as above; details: phytotoxicity rating 0-100 (0 no damage, 100 complete death), 14 days after application
# How it was run: as §3
# [14] = system: ivyleaf morningglory (Ipomoea hederacea, IPOHE); assay: as above; details: phytotoxicity rating 0-100 (0 no damage, 100 complete death), 14 days after application
# How it was run: as §3
# [15] = system: johnsongrass (Sorghum halepense, SORHA); assay: as above; details: phytotoxicity rating 0-100 (0 no damage, 100 complete death), 14 days after application
# How it was run: as §3
# [16] = system: lambsquarters (Chenopodium album, CHEAL); assay: as above; details: phytotoxicity rating 0-100 (0 no damage, 100 complete death), 14 days after application
# How it was run: as §3
# [17] = system: large crabgrass (Digitaria sanguinalis, DIGSA); assay: as above; details: phytotoxicity rating 0-100 (0 no damage, 100 complete death), 14 days after application
# How it was run: as §3
# [18] = system: redroot pigweed (Amaranthus retroflexus, AMARE); assay: as above; details: phytotoxicity rating 0-100 (0 no damage, 100 complete death), 14 days after application
# How it was run: as §3
# [19] = system: sicklepod (Cassia obtusifolia, CASOB); assay: as above; details: phytotoxicity rating 0-100 (0 no damage, 100 complete death), 14 days after application
# How it was run: as §3
# [20] = system: velvetleaf (Abutilon theophrasti, ABUTH); assay: as above; details: phytotoxicity rating 0-100 (0 no damage, 100 complete death), 14 days after application
# How it was run: as §3
# [21] = system: field corn (Zea mays L., var. Dekalb 535, CORN); assay: Post-emerge test, crop safety; details: phytotoxicity rating 0-100 (0 no damage, 100 complete death), 14 days after application
# How it was run: as §1
# [22] = system: upland rice (Oryza sp., var. Tebonnet, RICE); assay: Post-emerge test, crop safety; details: phytotoxicity rating 0-100 (0 no damage, 100 complete death), 14 days after application
# How it was run: as §1
smiles,measurement,setting,value
COc1c(Cl)cc(F)c(-n2c(=O)cc(C(F)(F)F)n(C)c2=O)c1NC(=O)C(C)(C)C [2-3],"Pre-emerge Herbicidal Activity AMARE (phytotoxicity rating, scale 0-100)",[1]; 63 g ai/ha,100
same,"Pre-emerge Herbicidal Activity AMARE (phytotoxicity rating, scale 0-100)",[1]; 250 g ai/ha,100
same,"Pre-emerge Herbicidal Activity ECHCG (phytotoxicity rating, scale 0-100)",[2]; 63 g ai/ha,0
same,"Pre-emerge Herbicidal Activity ECHCG (phytotoxicity rating, scale 0-100)",[2]; 250 g ai/ha,40
same,"Pre-emerge Herbicidal Activity SETVI (phytotoxicity rating, scale 0-100)",[3]; 63 g ai/ha,90
same,"Pre-emerge Herbicidal Activity SETVI (phytotoxicity rating, scale 0-100)",[3]; 250 g ai/ha,100
same,"Pre-emerge Herbicidal Activity IPOHE (phytotoxicity rating, scale 0-100)",[4]; 63 g ai/ha,60
same,"Pre-emerge Herbicidal Activity IPOHE (phytotoxicity rating, scale 0-100)",[4]; 250 g ai/ha,100
same,"Pre-emerge Herbicidal Activity SORHA (phytotoxicity rating, scale 0-100)",[5]; 63 g ai/ha,10
same,"Pre-emerge Herbicidal Activity SORHA (phytotoxicity rating, scale 0-100)",[5]; 250 g ai/ha,30
same,"Pre-emerge Herbicidal Activity CHEAL (phytotoxicity rating, scale 0-100)",[6]; 63 g ai/ha,100
same,"Pre-emerge Herbicidal Activity CHEAL (phytotoxicity rating, scale 0-100)",[6]; 250 g ai/ha,100
same,"Pre-emerge Herbicidal Activity DIGSA (phytotoxicity rating, scale 0-100)",[7]; 63 g ai/ha,30
same,"Pre-emerge Herbicidal Activity DIGSA (phytotoxicity rating, scale 0-100)",[7]; 250 g ai/ha,60
same,"Pre-emerge Herbicidal Activity CASOB (phytotoxicity rating, scale 0-100)",[8]; 63 g ai/ha,60
same,"Pre-emerge Herbicidal Activity CASOB (phytotoxicity rating, scale 0-100)",[8]; 250 g ai/ha,100
same,"Pre-emerge Herbicidal Activity ABUTH (phytotoxicity rating, scale 0-100)",[9]; 63 g ai/ha,100
same,"Pre-emerge Herbicidal Activity ABUTH (phytotoxicity rating, scale 0-100)",[9]; 250 g ai/ha,100
same,"Pre-emerge crop damage CORN (phytotoxicity rating, scale 0-100)",[10]; 63 g ai/ha,0
same,"Pre-emerge crop damage CORN (phytotoxicity rating, scale 0-100)",[10]; 250 g ai/ha,30
same,"Pre-emerge crop damage RICE (phytotoxicity rating, scale 0-100)",[11]; 63 g ai/ha,20
same,"Pre-emerge crop damage RICE (phytotoxicity rating, scale 0-100)",[11]; 250 g ai/ha,50
same,Post-emerge Herbicidal Activity ECHCG,[12]; 63 g ai/ha,0
same,Post-emerge Herbicidal Activity ECHCG,[12]; 250 g ai/ha,0
same,Post-emerge Herbicidal Activity SETVI,[13]; 63 g ai/ha,0
same,Post-emerge Herbicidal Activity SETVI,[13]; 250 g ai/ha,0
same,Post-emerge Herbicidal Activity IPOHE,[14]; 63 g ai/ha,60
same,Post-emerge Herbicidal Activity IPOHE,[14]; 250 g ai/ha,100
same,Post-emerge Herbicidal Activity SORHA,[15]; 63 g ai/ha,0
same,Post-emerge Herbicidal Activity SORHA,[15]; 250 g ai/ha,0
same,Post-emerge Herbicidal Activity CHEAL,[16]; 63 g ai/ha,30
same,Post-emerge Herbicidal Activity CHEAL,[16]; 250 g ai/ha,30
same,Post-emerge Herbicidal Activity DIGSA,[17]; 63 g ai/ha,0
same,Post-emerge Herbicidal Activity DIGSA,[17]; 250 g ai/ha,0
same,Post-emerge Herbicidal Activity AMARE,[18]; 63 g ai/ha,10
same,Post-emerge Herbicidal Activity AMARE,[18]; 250 g ai/ha,40
same,Post-emerge Herbicidal Activity CASOB,[19]; 63 g ai/ha,0
same,Post-emerge Herbicidal Activity CASOB,[19]; 250 g ai/ha,0
same,Post-emerge Herbicidal Activity ABUTH,[20]; 63 g ai/ha,80
same,Post-emerge Herbicidal Activity ABUTH,[20]; 250 g ai/ha,100
same,Post-emerge Herbicidal Activity CORN (crop damage),[21]; 63 g ai/ha,0
same,Post-emerge Herbicidal Activity CORN (crop damage),[21]; 250 g ai/ha,10
same,Post-emerge Herbicidal Activity RICE (crop damage),[22]; 63 g ai/ha,0
same,Post-emerge Herbicidal Activity RICE (crop damage),[22]; 250 g ai/ha,40

# — patent publication US6355799B1, “Substituted benzene compounds, process for their preparation, and herbicidal and defoliant compositions containing them” (ISK Americas Incorporated, priority 1997, dated 2002)
